Test results taken from patent publication US9345766B2, “Combination therapies comprising anti-ERBB3 agents” (Merrimack Pharmaceuticals, Inc., priority 2012, dated 2016).

Tested on: phospho-ErbB3 (pErbB3)
Assay type: cell-based
Details: incubation 15 minutes to 24 hours
Method: Cell lysates are probed for phospho-ErbB3 (pErbB3), and phospho-AKT (pAKT) by ELISA as described previously (Schoeberl et al, 2009) Inhibitor IC50 values are calculated by fitting dose-response data to a 4-parameter sigmoidal curve (GraphPad Prism®, GraphPad Software, Inc., La Jolla, Calif.).
Model-generated dose-response curves overlay the experimental data (FIG. 7a). […] Untreated and heregulin-stimulated cells were probed for pErbB3 and pAKT and the IC50 was calculated (FIG. 7b).
Amounts of pAKT and pErbB3 were measured by ELISA essentially as described.

## MM-111: bispecific anti-ErbB2/anti-ErbB3 antibody, scFv HSA conjugate, amino acid sequence SEQ ID NO:1
  ability to inhibit heregulin-induced ErbB3 activation relative to lapatinib: superior to lapatinib by greater than an order of magnitude
